Assay results taken from PubChem BioAssay AID1919002 (Molecular Pharmacology Branch, DTP, NCI, 2023).
pIC50: −log10 of the molar value.

Tested on: 743489-274-T-PDC complex spheroid growth
Test: Anticancer human tumor 743489-274-T-PDC patient-derived renal cell carcinoma cell line growth inhibition [AhR]
Conditions: for pIC50: curve of first compound; for viability, T/C: stronger effect = lower value
Description: Multicellular complex tumor spheroid response to aryl hydrocarbon receptor antagonists in combination with a variety of drugs and investigational agents in selected tumor cell lines
The current study was undertaken to assess response to aryl hydrocarbon receptor antagonists in combination with standard-of-care drugs and investigational agents in solid tumor complex spheroid models. Complex spheroids include a stromal component modeled by human endothelial cells (HUVEC) and fibroblasts modeled by human mesenchymal stem cells (MSCs). The concentration ranges selected for each drug and investigational agent were based upon clinically achievable concentrations if the clinical Cmax of the agent was known.
Compounds. The drugs and investigational agents: BAY 2416964 (NSC825713), GNF351 (NSC835774), CH-223191 (NSC835775), CPI-455 (NSC825282), aza-TdCyd (NSC777586), decitabine (NSC127716), belinostat (NSC758774), entinostat (NSC756642), pevonedistat (NSC761192), tazemetostat (NSC777109), talazoparib (NSC765396), olaparib (NSC753686), selinexor (NSC780203), nedisertib (M3814, NSC802822), bortezomib (NSC756655), venetoclax (NSC766270), doxorubicin (NSC123127), elimusertib (BAY189344, NSC800525), ceralasertib (AZD6738, NSC777638), TAK-243 (NSC785004), alisertib (NSC759677), etoposide (NSC141540), topotecan (NSC609699), eribulin (NSC707389), gemcitabine (NSC613327), carboplatin (NSC241240), cisplatin (NSC119875), and SN-38 (NSC673596) were obtained from the National Cancer Institute (NCI) Developmental Therapeutics Program Chemical Repository (32). The FDA-approved anticancer drug set is available from the Developmental Therapeutics Program at https://dtp.cancer.gov/organization/dscb/obtaining/available plates.htm. […] The stock solutions were prepared in dimethyl sulfoxide (DMSO, Sigma-Aldrich, St. Louis, MO, cat. D2650), except for the platinum compounds which were prepared in saline (Quality Biological, Gaithersburg, MD, cat. 114-055-101), at 800-fold the tested concentration and stored at -70 degrees C prior to their use. All drugs and investigational agents were tested over a range starting from a high concentration at or near the clinical Cmax and decreasing in half-log increments. If the clinical Cmax for an agent had not been determined, the highest concentration tested was 10 microM (Table 1).
Cell Culture. All cells were maintained in an incubator at 37 degrees C and 5% CO2 with 95% humidity. The PDC lines were cultured according to standard operating procedures established by the NCI PDMR (https://pdmr.cancer.gov). Briefly, all PDCs were thawed and cultured in Matrigel-coated flasks prepared with a working solution of 1X Ham's F-12 nutrient mix, without supplementation (Invitrogen, Waltham, MA, cat. 11765054), 100 U/mL penicillin-streptomycin (Invitrogen, cat. 15140122), and 2.5% Matrigel (Corning Inc., Corning, NY, cat. 354248) for the first three passages. All PDCs were cultured in complete DMEM/F-12 media containing advanced DMEM/F-12 (Invitrogen, cat. 12634028), 4.9% defined fetal bovine serum, heat inactivated (HyClone Laboratories Inc., Logan, UT, cat. SH30070.03HI), 389 ng/mL hydrocortisone (Sigma-Aldrich, cat. H4001), 9.7 ng/mL human EGF recombinant protein (Invitrogen, cat. PHG0313), 23.4 microg/mL adenine (Sigma-Aldrich, cat. A2786), 97.3 U/mL penicillin-streptomycin (Invitrogen, cat. 15140122), 1.9 mM L-glutamine (Invitrogen, cat. 25030081), and 9.7 microM Y-27632 dihydrochloride (Tocris Bioscience, Bristol, United Kingdom, cat. 1254). The PDCs were cultured in complete DMEM/F12 media without 10 microM Y-27632 dihydrochloride for at least two passages prior to the screen. The established cell lines NCI-H1341 and […] were cultured in DMEM/F-12, HEPES (Invitrogen, cat. 11330032), 5% defined fetal bovine serum (HyClone Laboratories Inc., cat. SH30070.03), ITS premix universal culture supplement [insulin (5 microg/mL), transferrin (5 microg/mL), and selenious acid (5 ng/mL)] […]

[1] = second compound 0.1 µM, first compound 0.0316 µM
[2] = second compound 0.1 µM, first compound 0.1 µM
[3] = second compound 0.1 µM, first compound 0.316 µM
[4] = second compound 0.1 µM, first compound 1 µM
[5] = second compound 0.1 µM, first compound 3.16 µM
[6] = second compound 0.1 µM, first compound 10 µM
[7] = second compound 0.316 µM, first compound 0.0316 µM
[8] = second compound 0.316 µM, first compound 0.1 µM
[9] = second compound 0.316 µM, first compound 0.316 µM
[10] = second compound 0.316 µM, first compound 1 µM
[11] = second compound 0.316 µM, first compound 3.16 µM
[12] = second compound 0.316 µM, first compound 10 µM
[13] = second compound 1 µM, first compound 0.0316 µM
[14] = second compound 1 µM, first compound 0.1 µM
[15] = second compound 1 µM, first compound 0.316 µM
[16] = second compound 1 µM, first compound 1 µM
[17] = second compound 1 µM, first compound 3.16 µM
[18] = second compound 1 µM, first compound 10 µM
[19] = second compound 3.16 µM, first compound 0.0316 µM
[20] = second compound 3.16 µM, first compound 0.1 µM
[21] = second compound 3.16 µM, first compound 0.316 µM
[22] = second compound 3.16 µM, first compound 1 µM
[23] = second compound 3.16 µM, first compound 3.16 µM
[24] = second compound 3.16 µM, first compound 10 µM
[25] = second compound 10 µM, first compound 0.0316 µM
[26] = second compound 10 µM, first compound 0.1 µM
[27] = second compound 10 µM, first compound 0.316 µM
[28] = second compound 10 µM, first compound 1 µM
[29] = second compound 10 µM, first compound 3.16 µM
[30] = second compound 10 µM, first compound 10 µM
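Note: spheroids exposed to agents for 7 days before readout.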
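Throughout, for viability, T/C: 100% = DMSO vehicle control wells.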

pIC50 (second compound 0.1 µM)	pIC50 (second compound 0.316 µM)	pIC50 (second compound 1 µM)	pIC50 (second compound 3.16 µM)	pIC50 (second compound 10 µM)	Structure (SMILES)	viability, T/C [1] [%]	viability, T/C [2] [%]	viability, T/C [3] [%]	viability, T/C [4] [%]	viability, T/C [5] [%]	viability, T/C [6] [%]	viability, T/C [7] [%]	viability, T/C [8] [%]	viability, T/C [9] [%]	viability, T/C [10] [%]	viability, T/C [11] [%]	viability, T/C [12] [%]	viability, T/C [13] [%]	viability, T/C [14] [%]	viability, T/C [15] [%]	also measured
< 5.00	< 5.00	< 5.00	< 5.00	< 5.00	CC1COCCN1c1cc(C2(S(C)(=N)=O)CC2)nc(-c2ccnc3[nH]ccc23)n1 (stereo not given) + Cc1cncc(-c2nc(NCCc3c[nH]c4ccccc34)c3ncn(C(C)C)c3n2)c1	104	93.8	89.3	86	85.9	85.4	87.9	89.8	85.1	86.4	90	84.3	88.7	91.7	97.3	viability, T/C [16]: 98.1%; viability, T/C [17]: 84.1%; viability, T/C [18]: 83.7%; viability, T/C [19]: 109%; viability, T/C [20]: 108%; viability, T/C [21]: 105%; viability, T/C [22]: 90.9%; viability, T/C [23]: 91.4%; viability, T/C [24]: 85.7%; viability, T/C [25]: 97.3%; viability, T/C [26]: 117%; viability, T/C [27]: 92.5%; viability, T/C [28]: 107%; viability, T/C [29]: 105%; viability, T/C [30]: 99.1%
5.33	5.51	5.62	5.17	5.02	Nc1ccccc1NC(=O)c1ccc(CNC(=O)OCc2cccnc2)cc1 + Cc1cncc(-c2nc(NCCc3c[nH]c4ccccc34)c3ncn(C(C)C)c3n2)c1	104	92.7	86.5	77.7	54.2	36.6	92.2	93.1	89.4	74	50.1	36.3	88.5	84.1	87.2	viability, T/C [16]: 73.8%; viability, T/C [17]: 42.5%; viability, T/C [18]: 29.9%; viability, T/C [19]: 95.5%; viability, T/C [20]: 91.5%; viability, T/C [21]: 88.7%; viability, T/C [22]: 78.5%; viability, T/C [23]: 61.3%; viability, T/C [24]: 44.3%; viability, T/C [25]: 102%; viability, T/C [26]: 102%; viability, T/C [27]: 106%; viability, T/C [28]: 91.3%; viability, T/C [29]: 84.6%; viability, T/C [30]: 48.2%
< 5.00	< 5.00	< 5.00	< 5.00	< 5.00	NS(=O)(=O)OCC1CC(n2ccc3c(NC4CCc5ccccc54)ncnc32)CC1O (stereo not given) + Cc1ccccc1N=Nc1ccc(NC(=O)c2ccnn2C)c(C)c1	103	110	116	146	162	140	109	95.8	112	144	137	155	98.1	104	102	viability, T/C [16]: 144%; viability, T/C [17]: 146%; viability, T/C [18]: 141%; viability, T/C [19]: 105%; viability, T/C [20]: 90.8%; viability, T/C [21]: 112%; viability, T/C [22]: 128%; viability, T/C [23]: 152%; viability, T/C [24]: 140%; viability, T/C [25]: 96.7%; viability, T/C [26]: 103%; viability, T/C [27]: 116%; viability, T/C [28]: 130%; viability, T/C [29]: 121%; viability, T/C [30]: 115%
< 5.00	< 5.00	< 5.00	< 5.00	< 5.00	CC(C)c1c(-c2ccccc2)nc2c(C#N)c[nH]n2c1=O + Cc1cncc(-c2nc(NCCc3c[nH]c4ccccc34)c3ncn(C(C)C)c3n2)c1	101	126	104	103	96.2	104	112	104	101	107	100	96.7	107	103	111	viability, T/C [16]: 96.7%; viability, T/C [17]: 105%; viability, T/C [18]: 102%; viability, T/C [19]: 114%; viability, T/C [20]: 119%; viability, T/C [21]: 121%; viability, T/C [22]: 119%; viability, T/C [23]: 110%; viability, T/C [24]: 115%; viability, T/C [25]: 126%; viability, T/C [26]: 141%; viability, T/C [27]: 133%; viability, T/C [28]: 125%; viability, T/C [29]: 109%; viability, T/C [30]: 134%
5.51	5.64	5.67	5.48	5.91	O=C(C=Cc1cccc(S(=O)(=O)Nc2ccccc2)c1)NO + Cc1ccccc1N=Nc1ccc(NC(=O)c2ccnn2C)c(C)c1	78.6	88.4	73	67.7	49.9	31	85.4	78.3	75.9	62.6	44.8	26.9	77.1	75.6	75.5	viability, T/C [16]: 70.6%; viability, T/C [17]: 39.5%; viability, T/C [18]: 25%; viability, T/C [19]: 79.7%; viability, T/C [20]: 81.2%; viability, T/C [21]: 75.2%; viability, T/C [22]: 68.9%; viability, T/C [23]: 50.7%; viability, T/C [24]: 25.8%; viability, T/C [25]: 75.4%; viability, T/C [26]: 76.9%; viability, T/C [27]: 64%; viability, T/C [28]: 56.1%; viability, T/C [29]: 34%; viability, T/C [30]: 27.9%
